Reference: ChEMBL document CHEMBL1131802, “Design and synthesis of beta-carboxamido phosphonates as potent inhibitors of imidazole glycerol phosphate dehydratase” (Bioorg Med Chem Lett, 1999)
pIC50, pKi: −log10 of the molar value.

Legend:
[1] = molecular target: T1, Imidazoleglycerol-phosphate dehydratase (Cryptococcus neoformans var. neoformans B-3501A, UniProt P0CO23); assay: Binding affinity imidazole glycerol phosphate dehydratase (IGPD) obtained from Cryptococcus neoformans
[2] = molecular target: T1, Imidazoleglycerol-phosphate dehydratase; assay: Inhibitory concentration against imidazole glycerol phosphate dehydratase (IGPD) from Cryptococcus neoformans
[3] = molecular target: Imidazoleglycerol-phosphate dehydratase (Cryptococcus neoformans var. neoformans B-3501A) (UniProt P0CO23); assay: Kinetic constant for the inhibition of imidazole glycerol phosphate dehydratase (IGPD)
Chain of Imidazoleglycerol-phosphate dehydratase (Cryptococcus neoformans var. neoformans B-3501A) (P0CO23 whole entry, looked up): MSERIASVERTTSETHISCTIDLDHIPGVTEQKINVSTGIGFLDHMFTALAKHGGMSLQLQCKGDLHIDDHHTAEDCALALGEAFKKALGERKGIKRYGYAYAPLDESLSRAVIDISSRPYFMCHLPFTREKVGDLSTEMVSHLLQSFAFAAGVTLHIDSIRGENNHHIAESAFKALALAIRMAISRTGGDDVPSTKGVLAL

T1 sequence (P0CO23 whole entry, looked up): as above

pKi [1] | pIC50 [2] | Kis [3] | SMILES
5.92 | 5.21 | 9 µM | CCC(=O)NC(Cn1cncn1)CP(=O)(O)O (centres undefined)
6.64 | 5.82 | 1.22 µM | CC(Oc1ccccc1)C(=O)NC(Cn1cncn1)CP(=O)(O)O (centres undefined)
6.15 | 5.55 | 3.95 µM | COC(=O)CCCC(=O)NC(Cn1cncn1)CP(=O)(O)O (centres undefined)
5.94 | 5.34 | 5.8 µM | O=C(NC(Cn1cncn1)CP(=O)(O)O)c1c(F)cccc1F (centres undefined)
5.95 | 5.32 | 5 µM | CC(C)(C)CC(=O)NC(Cn1cncn1)CP(=O)(O)O (centres undefined)
5.66 | 5.00 | 17 µM | COCC(=O)NC(Cn1cncn1)CP(=O)(O)O (centres undefined)
6.57 | 6.02 | 1.14 µM | O=C(CCc1ccccc1)NC(Cn1cncn1)CP(=O)(O)O (centres undefined)
5.89 | 5.39 | 5.9 µM | CCCCc1ccc(C(=O)NC(Cn2cncn2)CP(=O)(O)O)cc1 (centres undefined)
– | < 4.30 | – | CNC(=O)C(=O)NC(Cn1cncn1)CP(=O)(O)O (centres undefined)
7.10 | 6.42 | 0.27 µM | O=C(COc1ccccc1)NC(Cn1cncn1)CP(=O)(O)O (centres undefined)
6.64 | 6.04 | 1.23 µM | O=C(CO)NC(Cn1cncn1)CP(=O)(O)O (centres undefined)
– | 5.54 | – | CC1(C)CC(=O)OC1CC(=O)NC(Cn1cncn1)CP(=O)(O)O (centres undefined)
6.06 | 5.51 | 3.7 µM | O=C(CCC1CCCC1)NC(Cn1cncn1)CP(=O)(O)O (centres undefined)
5.84 | 5.40 | 5.6 µM | C/C=C/C(=O)NC(Cn1cncn1)CP(=O)(O)O (centres undefined)
6.10 | 5.41 | 6.1 µM | CC(=O)NC(Cn1cncn1)CP(=O)(O)O (centres undefined)
– | 5.82 | – | O=C(CCc1cccc([N+](=O)[O-])c1)NC(Cn1cncn1)CP(=O)(O)O (centres undefined)
6.25 | 5.46 | 2.4 µM | O=C(Cc1cccs1)NC(Cn1cncn1)CP(=O)(O)O (centres undefined)
– | 4.70 | – | O=C(CCC(=O)c1ccccc1)NC(Cn1cncn1)CP(=O)(O)O (centres undefined)
– | 6.10 | – | CC1(CCC(=O)NC(Cn2cncn2)CP(=O)(O)O)SCCS1 (centres undefined)
5.35 | 4.68 | 25 µM | O=C(/C=C/c1ccccc1)NC(Cn1cncn1)CP(=O)(O)O (centres undefined)
6.60 | 6.04 | 1.26 µM | O=C(CSc1ccccc1)NC(Cn1cncn1)CP(=O)(O)O (centres undefined)
6.26 | 5.70 | 2.12 µM | O=C(COc1ccc(Cl)cc1)NC(Cn1cncn1)CP(=O)(O)O (centres undefined)
5.46 | 4.80 | 22 µM | O=C(NC(Cn1cncn1)CP(=O)(O)O)c1ccccc1O (centres undefined)
5.40 | 4.77 | 19 µM | O=C(NC(Cn1cncn1)CP(=O)(O)O)C1CC1 (centres undefined)
5.89 | 5.35 | 5.5 µM | CC(C)=CC(=O)NC(Cn1cncn1)CP(=O)(O)O (centres undefined)
6.47 | 5.57 | 3.9 µM | O=C(Cc1ccccc1)NC(Cn1cncn1)CP(=O)(O)O (centres undefined)
6.47 | 6.08 | 1.22 µM | CCCCCC(=O)NC(Cn1cncn1)CP(=O)(O)O (centres undefined)
5.12 | < 4.30 | 33 µM | O=C(NC(Cn1cncn1)CP(=O)(O)O)c1ccco1 (centres undefined)
5.00 | < 4.30 | 100 µM | O=C(NC(Cn1cncn1)CP(=O)(O)O)c1ccccc1 (centres undefined)

SMILES | pKi [1] | pIC50 [2] | Kis [3]
O=P(O)(O)CC(O)Cn1cncn1 (centres undefined) | 9.22 | – | –
NC(Cn1cncn1)CP(=O)(O)O (centres undefined) | 7.82 | – | –
